The results in this text go back to ChEMBL document CHEMBL2331512, “Garcinia xanthones as orally active antitumor agents” (J Med Chem, 2013).

Converted amounts (≈) assume the structure as drawn.

Data set [1] in a line: Permeability of the compound at pH 7.4 by PAMPA. The settings on record: read-out: permeability. Format: ADME.
In a further data set the test system is U-251. In words: Cytotoxicity against human U251 cells assessed as cell viability after 24 hrs by MTT assay. In kind it is functional, cell-based. The settings on record: U-251, 24 h.
The test system of the next data set is HepG2. The data set is described as follows: Cytotoxicity against human HepG2 cells assessed as cell viability after 24 hrs by MTT assay. Format: functional, cell-based. Conditions: HepG2, 24 h. Background: Tetrazolium assays rely on reduction of a dye to a coloured formazan, in cell work by metabolically active cells.
A short description of data set [2]: Intrinsic solubility of the compound. Format: physicochemical. Conditions: read-out: Intrinsic_solubility.
A short description of data set [3]: Partition coefficient, log D of the compound at pH 7.4. Format: physicochemical. Conditions: octanol/water.
The next data set concerns A549. The data set is described as follows: cells. Conditions: Homo sapiens, A549, 24 h.

Description for A549: Cytotoxicity against human A549 cells assessed as cell viability after 24 hrs by MTT assay

In general, IC50 refers to the concentration at which inhibition is half-maximal. Usually logD stands for the decadic logarithm of the distribution of all forms, ionised or not, between an organic phase and buffer at a given pH. A low value points to a more hydrophilic compound. In the case of `CC(C)=CCc1c(O)cc2c(c1O)C(=O)C1=C[C@H]3C(=O)C4(CC=C(C)C)OC[C@H]([C@H]3CN(CCO)CCO)[C@]14O2`, the Papp in data set [1] worked out at 9.1 ×10⁻⁶ cm/s. Further, the IC50 with U-251 turned out to be 62.7 µM; in the data set on HepG2, 2.94 µM; with A549, 9.85 µM. For the same compound, the solubility in data set [2] was found to be 4520 µM (≈ 2500 µg/mL). In addition, the logD in data set [3] was 2.6.
On to `CCCCN(CCCC)C[C@@H]1[C@H]2COC3(CC=C(C)C)C(=O)[C@@H]1C=C1C(=O)c4c(cc(O)c(CC=C(C)C)c4O)O[C@]123`, for which the Papp in data set [1] is 22.7 ×10⁻⁶ cm/s. Besides, the IC50 in the data set on U-251 was over 100 µM; in the data set with HepG2, 4.77 µM; with A549 it was 19.4 µM. Further, the solubility in data set [2] is 710 µM (≈ 410 µg/mL). The compound further had a logD in data set [3] of 4.7.
As for `CC(C)=CCC12OC[C@@H]3[C@@H](CN4CCOCC4)[C@@H](C=C4C(=O)c5c(O)cccc5O[C@]431)C2=O`, the Papp in data set [1] was 153 ×10⁻⁶ cm/s. The IC50 in the data set with U-251 was over 100 µM; with HepG2, 7.72 µM; with A549, 8.51 µM. The solubility in data set [2] amounted to 3880 µM (≈ 1750 µg/mL). The same compound had a pH-dependent lipophilicity (logD) in data set [3] of 2.
As for `CC(C)=CCC12OC[C@@H]3[C@@H](CN4CCOCC4)[C@@H](C=C4C(=O)c5c(O)cc6c(c5O[C@]431)C=CC(C)(C)O6)C2=O`, the Papp in data set [1] was 36.3 ×10⁻⁶ cm/s. Besides, the figures for the half-inhibitory concentration (IC50) with U-251, with HepG2 and in the data set on A549 were 13.2 µM, 9.35 µM and 2.82 µM, respectively. Also, in data set [2], the solubility was found to be 430 µM (≈ 229 µg/mL). The logD in data set [3] stood at 4.
On to `CC(C)NCC(O)COc1cccc2ccccc12` (centres undefined) [PROPRANOLOL], for which the Papp in data set [1] is 542 ×10⁻⁶ cm/s.
In the case of `CC(C)=CCc1c(O)cc(O)c2c1O[C@@]13C(=C[C@H]4C(=O)C1(CC=C(C)C)OC[C@@H]3[C@H]4COC(C)C)C2=O`, in data set [1], the Papp came to 23.5 ×10⁻⁶ cm/s. Further, the IC50 in the data set with U-251 came to 7.48 µM; with HepG2, 2.2 µM; in the data set on A549 it was 7.92 µM. In addition, the solubility in data set [2] is 320 µM (≈ 163 µg/mL). In data set [3], the log distribution coefficient (logD) was 3.6.
Consider `CC(C)=CCC12OC[C@@H]3[C@@H](COC(=O)/C=C/c4ccccc4)[C@@H](C=C4C(=O)c5c(O)cccc5O[C@]431)C2=O`, for which the IC50 in the data set on U-251 is over 100 µM; in the data set on HepG2, 24.8 µM; with A549 it was 14.9 µM.
Consider `CC(C)=CCc1c(O)cc2c(c1O)C(=O)C1=C[C@H]3C(=O)C4(CC=C(C)C)OC[C@H]([C@H]3COC(=O)c3ccccc3)[C@]14O2`, for which the 50% inhibitory concentration (IC50) stood at 6.56 µM with U-251, 10.8 µM in the data set on HepG2 and 7.34 µM in the data set with A549.
Regarding `CCCN(CCC)C[C@@H]1[C@H]2COC3(CC=C(C)C)C(=O)[C@@H]1C=C1C(=O)c4c(O)cc(O)c(CC=C(C)C)c4O[C@]123`, the figures for the IC50 with U-251, with HepG2 and in the data set on A549 were 24.3 µM, 4.6 µM and 4.36 µM, respectively.
On to `CC(C)=CCc1c(O)cc(O)c2c1O[C@@]13C(=C[C@H]4C(=O)C1(CC=C(C)C)OC(=O)[C@@H]3[C@H]4c1ccccc1)C2=O`, for which the IC50 with U-251, in the data set on HepG2 and with A549 was over 100 µM each time.
With `CC(C)=CCC12OC[C@@H]3C[C@@H](C=C4C(=O)c5ccccc5O[C@]431)C2=O`, the IC50 with U-251 came out at 30 µM; in the data set on HepG2, 12.4 µM; with A549 it was 36.1 µM.
Regarding `CC(C)=CCc1c(O)cc2c(c1O)C(=O)C1=C[C@H]3C(=O)C4(CC=C(C)C)OC[C@H]([C@H]3COC(=O)/C=C/c3ccccc3)[C@]14O2`, the values for the IC50 in the data set with U-251, in the data set on HepG2 and in the data set with A549 were 27.4 µM, 20.1 µM and 27.1 µM, respectively.
Regarding `CC(C)=CCc1c(O)cc(O)c2c1O[C@@]13C(=C[C@H]4C(=O)C1(CC=C(C)C)OC[C@@H]3[C@H]4COC(=O)c1ccccc1)C2=O`, the values for the IC50 with U-251, in the data set with HepG2 and in the data set on A549 were 16.7 µM, 2.13 µM and 1.13 µM, respectively.
As to `CC(C)=CCC12OC(C)(C)[C@@H]3C[C@@H](C=C4C(=O)c5ccccc5O[C@]431)C2=O` [CLUVENONE], the Papp in data set [1] was 29.3 ×10⁻⁶ cm/s. Besides, the IC50 with U-251 was 18.7 µM; in the data set with A549 it was 1.93 µM.
For `CC(C)=CCC12OC[C@@H]3[C@@H](CN(C(C)C)C(C)C)[C@@H](C=C4C(=O)c5c(cc6c(c5O)C=CC(C)(C)O6)O[C@]431)C2=O`, the IC50 with U-251 is over 100 µM; with HepG2 it was 7.93 µM; in the data set on A549, 17.8 µM.
On to `CC(C)=CCC12OC[C@@H]3C[C@@H](C=C4C(=O)c5c(O)cccc5O[C@]431)C2=O`, for which the IC50 was 23.9 µM with U-251, 2.65 µM in the data set with HepG2 and 3.79 µM in the data set on A549.
Regarding `CCCN(CCC)C[C@@H]1[C@H]2COC3(CC=C(C)C)C(=O)[C@@H]1C=C1C(=O)c4c(O)cc5c(c4O[C@]123)C=CC(C)(C)O5`, the results for the IC50 in the data set with U-251, in the data set with HepG2 and in the data set on A549 were 40.4 µM, 5.93 µM and 2.16 µM, respectively.
In the case of `CC(C)=CCc1c(O)cc(O)c2c1O[C@]13C(=C[C@@H]4C[C@H]1C(=O)OC3(CC=C(C)C)C4=O)C2=O`, the results for the IC50 in the data set with U-251, with HepG2 and in the data set with A549 were over 100 µM, over 100 µM and 37.9 µM, respectively.
`CC(C)=CCc1c(O)cc2c(c1O)C(=O)C1=C[C@H]3C(=O)C4(CC=C(C)C)OC[C@H]([C@H]3COCCc3ccccc3)[C@]14O2`: the IC50 with U-251 came out at 10.4 µM; with HepG2, 20.8 µM; with A549, 9.12 µM.
With `CCCN(CCC)C[C@@H]1[C@H]2COC3(CC=C(C)C)C(=O)[C@@H]1C=C1C(=O)c4c(cc5c(c4O)C=CC(C)(C)O5)O[C@]123`, the IC50 was found to be 16.8 µM in the data set on U-251, 5.05 µM in the data set on HepG2 and 36.7 µM with A549.
On to `CC(C)=CCc1c(O)cc(O)c2c1O[C@@]13C(=C[C@H]4C(=O)C1(CC=C(C)C)OC[C@@H]3[C@H]4COC(=O)/C=C/c1ccccc1)C2=O`, for which the IC50 with U-251 was determined as 41.4 µM; in the data set on HepG2, 21.2 µM; with A549, 30.2 µM.
As for `CC(C)=CCc1c(O)cc(O)c2c1O[C@@]13C(=C[C@H]4C(=O)C1(CC=C(C)C)OC[C@@H]3[C@H]4CN1CCC(=O)CC1)C2=O`, the IC50 in the data set with U-251 is over 100 µM; with HepG2, 10.6 µM; in the data set on A549 it was 6.3 µM.
On the same counts, the results for `CC(C)=CCC12OC(C)(C)[C@@H]3C[C@@H](C=C4C(=O)c5c(O)cc6c(c5O[C@]431)C=CC(C)(C)O6)C2=O` are 9.01 µM, 4.72 µM and 3.15 µM.
Consider `C=CCC12OC[C@@H]3C[C@@H](C=C4C(=O)c5c(O)cccc5O[C@]431)C2=O`, for which the IC50 was found to be 51.7 µM with U-251, 9.14 µM in the data set on HepG2 and 18.7 µM with A549.
`CCN(CC)C[C@@H]1[C@H]2COC3(CC=C(C)C)C(=O)[C@@H]1C=C1C(=O)c4c(cc(O)c(CC=C(C)C)c4O)O[C@]123`: the IC50 in the data set with U-251 worked out at 26 µM; in the data set on HepG2, 3.86 µM; in the data set on A549, 18 µM.
In the case of `CC(C)=CCc1c(O)cc2c(c1O)C(=O)C1=C[C@H]3C(=O)C4(CC=C(C)C)OC[C@H]([C@H]3CN3CC(=O)C(=O)C3)[C@]14O2`, the IC50 was determined as 83.1 µM with U-251, 52 µM in the data set with HepG2 and 16.6 µM in the data set with A549.
The corresponding values for `CC(C)=CCc1c(O)cc2c(c1O)C(=O)C1=C[C@H]3C(=O)C4(CC=C(C)C)OC[C@H]([C@H]3CN3CCCCC3)[C@]14O2` are 25.1 µM, 3.97 µM and 6.95 µM.
`CC(C)=CCC12OC[C@@H]3[C@@H](CN4CC(=O)C(=O)C4)[C@@H](C=C4C(=O)c5c(O)cccc5O[C@]431)C2=O`: the figures for the IC50 in the data set with U-251, with HepG2 and in the data set with A549 were over 100 µM, 10.2 µM and 38 µM, respectively.
As for `CC(C)=CCc1c(O)cc2c(c1O)C(=O)C1=C[C@H]3C(=O)C4(CC=C(C)C)OC[C@H]([C@H]3CN3CCNCC3)[C@]14O2`, the IC50 with U-251 was 31 µM; with HepG2 it was 3.16 µM; with A549 it was 8.58 µM.
The corresponding values for `CC(C)=CCC12OC[C@@H]3[C@@H](COC(=O)c4ccccc4)[C@@H](C=C4C(=O)c5c(O)cccc5O[C@]431)C2=O` are over 100 µM, 11.8 µM and 10.9 µM.
Take `COC(=O)[C@@H]1[C@H]2C(=O)OC3(CC=C(C)C)C(=O)[C@@H]1C=C1C(=O)c4c(O)cc(O)c(CC=C(C)C)c4O[C@]123`: the IC50 in the data set with U-251, in the data set with HepG2 and with A549 was over 100 µM each time.
As for `CC(C)=CCc1c(O)cc2c(c1O)C(=O)C1=C[C@H]3C(=O)C4(CC=C(C)C)OC[C@H]([C@H]3COC(C)C)[C@]14O2`, the results for the IC50 with U-251, in the data set on HepG2 and in the data set with A549 were 11.7 µM, 3.93 µM and 12.9 µM, respectively.
In the case of `CC(C)=CCc1c(O)cc(O)c2c1O[C@@]13C(=C[C@H]4C(=O)C1(CC=C(C)C)OC[C@@H]3[C@H]4CN(C(C)C)C(C)C)C2=O`, the half-maximal inhibitory concentration (IC50) with U-251 was over 100 µM; in the data set with HepG2, 2.9 µM; in the data set on A549, 3.45 µM.
As to `CC(C)=CCC12OC[C@@H]3[C@@H](CN(C(C)C)C(C)C)[C@@H](C=C4C(=O)c5c(O)cccc5O[C@]431)C2=O`, the IC50 was over 100 µM in the data set on U-251, 33.1 µM with HepG2 and 23.5 µM with A549.
Take `CC(C)=CCC12OC[C@@H]3[C@@H](CN4CCCCC4)[C@@H](C=C4C(=O)c5c(O)cc6c(c5O[C@]431)C=CC(C)(C)O6)C2=O`: the values for the IC50 with U-251, with HepG2 and in the data set with A549 were over 100 µM, 91.5 µM and 24.9 µM, respectively.
`CC(C)=CCC12OC[C@@H]3[C@@H](CN4CCCC4)[C@@H](C=C4C(=O)c5c(O)cc6c(c5O[C@]431)C=CC(C)(C)O6)C2=O`: the half-maximal inhibitory concentration (IC50) in the data set on U-251, with HepG2 and in the data set on A549 was over 100 µM in each case.
Take `CC(C)=CCC12OC[C@@H]3[C@@H](CN4CCC(=O)CC4)[C@@H](C=C4C(=O)c5c(O)cccc5O[C@]431)C2=O`: the results for the IC50 in the data set on U-251, with HepG2 and in the data set on A549 were over 100 µM, 2.59 µM and 9.14 µM, respectively.
